Assay results published in US20100092574A1, “SYNERGISTIC PEROXIDE BASED BIOCIDAL COMPOSITIONS” (priority 2008, published 2010).

Experiments:
[1] = Stability of active halogen species in the presence of residual H2O2; format: physicochemical
Method: The stability of nitrogen-bound active halogen species in the presence of residual H2O2 was investigated. Free and total chlorine concentrations were measured by standard DPD methodology and the total H2O2 concentration by acidic […] titration. The concentration of MCDMH is the concentration of the total active halogen less the concentration of free active halogen. The concentration of H2O2 is the total oxidant concentration less the MCDMH concentration. […] The indicated reaction is shown in Equation 6.
The effect of the addition of a molar equivalent of 5,5-dimethylhydantoin (DMH) to NaOCl solutions prior to combination with hydrogen peroxide was investigated. The concentration of MCDMH is the concentration of the total active halogen less the concentration of free active halogen. The concentration of H2O2 is the total oxidant concentration less the MCDMH concentration.

Pseudomonas aeruginosa = experiment: Bactericidal efficacy of sulfite and hydrogen peroxide solutions in the absence of pulp; format: cell-based; conditions: for 3 h Reduction: pH 7.0, 3 h at 37° C.; for reduction: 50 ppm hydrogen peroxide, 3 h
Text: (§1) The expression “1 g cfu/mL” denotes the common (decadic) logarithm of the number of colony-forming units per milliliter or, in connection with the term “reduction”, the common logarithm of the quotient of the number of colony-forming units per milliliter before treatment and the number of colony-forming units after treatment. Unless otherwise indicated all concentrations in percent or ppm are expressed on a weight basis.
The bactericidal efficacy of solutions containing sulfite and hydrogen peroxide was further investigated in the absence of pulp. Efficacy was measured against Pseudomonas aeruginosa grown in nutrient in the presence of 83 and 830 ppm sulfite. The sulfite-containing P. aeruginosa inoculum was then diluted 1:99 with Butterfield's buffer at pH 7.0. The sulfite concentrations in Table 5 below are the those in the final dilution. The dilutions were then contacted with 50 ppm hydrogen peroxide for 3 h at 37° C.

[2] = tested on: microbial population of sulfite bleached pulp slurry (total aerobic counts); experiment: Biocidal performance in sulfite bleached pulp slurry, total aerobic counts (tryptone soy agar plating); format: cell-based; conditions: for amount alone required to achieve 1 g cfu/mL reduction of 4.2: single agent; for 3 h Reduction: 3 h contact; for 24 h Reduction: 24 h contact
Text: as §1
Synergistic biocidal performance upon co-application of sulfite with hydrogen peroxide at elevated pH was investigated. The sulfite and peroxide concentrations indicated in Table 3 below were added to an aqueous solution made from: (a) deionized water, (b) NaHCO3 to achieve a carbonate buffer concentration of 200 ppm (as CaCO3 total alkalinity), (c) sulfite bleached pulp slurry to achieve a final consistency of 0.05%, carrying an associated minimal concentration of residual sulfite of 6 ppm, and (d) NaOH to achieve a pH of 9.0.
The microbial population was that provided by preparing the pulp slurry 24-48 h prior to testing and storing at room temperature, thus allowing microbial growth to a high test level. […] Populations reported are total aerobic counts using tryptone soy agar plating.
SI=(level of A)/(efficacious level of A)+(level of B)/(efficacious level of B) (3)
Synergy upon co-application of sulfite with hydrogen peroxide at higher concentrations of sulfite and hydrogen peroxide was investigated. The conditions were the same as in Example 3.

[3] = Residual sulfite and hydrogen peroxide content after mixing (co-stability); format: physicochemical
Method: Aqueous solutions containing sodium sulfite and hydrogen peroxide were mixed at 21° C. to obtain a solution having a sulfite content (as SO3^2−) of 40 ppm, a hydrogen peroxide content of 20.0 ppm and a pH of 6.7. The temperature of the solution was maintained at 21° C. and the residual sulfite and peroxide content was determined at 15, 30 and 60 minutes after mixing. The procedure consisted of adding a known amount of 1-chloro-5,5-dimethylhydantoin (MCDMH) to the samples in excess of the estimated residual sulfite content. The remaining MCDMH concentration was then measured by standard DPD total halogen methodologies. As sulfite rapidly neutralizes MCDMH at all pHs the sulfite concentration is the concentration of MCDMH added less the concentration of MCDMH measured, see Equation 1 below.
[Sulfite]=[MCDMHadded]−[MCDMHmeasured] (1)
The H2O2 concentration was determined by recording the concentration of H2O2 measured using acidic thiosulfate titration with KI indicator (HACH HYP-1 hydrogen peroxide test kit—Hach Co., Loveland, Colo.). Since this titration is run at acidic pH, this method yields the concentration of H2O2 in excess of the sulfite concentration contained in the sample. As the sulfite concentration is known from the MCMDH analysis and Equation 1, the H2O2 concentration can be calculated using the following Equation 2:
[H2O2]=[H2O2 measured]+[Sulfitecalculated] (2)
The estimated error in the methodology is ±1 ppm
The procedure of Example 1 was repeated with the difference that the pH of the mixed solution was 9.0 and the residual concentrations were determined 5, 15, 30, 60, 120 and 1080 minutes after mixing.

[4] = 2.1 ppm H2O2 + 1.0 ppm DMH stabilized NaOCl, 1 min
[5] = 2.1 ppm H2O2 + 1.0 ppm DMH stabilized NaOCl, 5 min
[6] = 2.1 ppm H2O2 + 1.0 ppm DMH stabilized NaOCl, 15 min
[7] = 2.1 ppm H2O2 + 1.0 ppm DMH stabilized NaOCl, 60 min
[8] = 2.1 ppm H2O2 + 1.0 ppm NaOCl (as Cl2), 1 min
[9] = 2.1 ppm H2O2 + 1.0 ppm NaOCl (as Cl2), 5 min
[10] = 2.1 ppm H2O2 + 1.0 ppm NaOCl (as Cl2), 15 min
[11] = combination of 2.1 ppm H2O2 with 1 ppm NaOCl (as Cl2), immediate
[12] = Table 3 Test No. 2: sulfite 32 ppm, peroxide 0 ppm, pH 9.0
[13] = Table 3 Test No. 3: sulfite 128 ppm, peroxide 0 ppm, pH 9.0
[14] = Table 4 Test No. 2: sulfite 128 ppm, peroxide 0 ppm
[15] = Table 4 Test No. 3: sulfite 512 ppm, peroxide 0 ppm
[16] = pH 6.7, 21° C., start 40 ppm sulfite + 20.0 ppm H2O2, 15 min
[17] = pH 6.7, 21° C., start 40 ppm sulfite + 20.0 ppm H2O2, 30 min
[18] = pH 6.7, 21° C., start 40 ppm sulfite + 20.0 ppm H2O2, 60 min
[19] = pH 9.0, start 40 ppm sulfite + 20.0 ppm H2O2, 5 min
[20] = pH 9.0, start 40 ppm sulfite + 20.0 ppm H2O2, 15 min
[21] = pH 9.0, start 40 ppm sulfite + 20.0 ppm H2O2, 30 min
[22] = pH 9.0, start 40 ppm sulfite + 20.0 ppm H2O2, 60 min
[23] = pH 9.0, start 40 ppm sulfite + 20.0 ppm H2O2, 120 min
[24] = pH 9.0, start 40 ppm sulfite + 20.0 ppm H2O2, 1080 min
[25] = Example 3, hydrogen peroxide alone (40-160 ppm per Table 3)
[26] = Example 4, hydrogen peroxide alone at 120-160 ppm
[27] = Table 3 Test No. 4: sulfite 0 ppm, peroxide 40 ppm, pH 9.0
[28] = Table 3 Test No. 5: sulfite 0 ppm, peroxide 160 ppm, pH 9.0
[29] = Table 4 Test No. 4: sulfite 0 ppm, peroxide 120 ppm
[30] = Table 4 Test No. 5: sulfite 0 ppm, peroxide 150 ppm
[31] = Table 4 Test No. 6: sulfite 0 ppm, peroxide 160 ppm

CC1(C)C(=O)NC(=O)N1Cl [DMH stabilized NaOCl, 1-chloro-5,5-dimethylhydantoin]
Free active halogen DPD (as Cl2) [1, 4]: 0.0 ppm
Indicated Species DMH stabilized NaOCl (as Cl2) [1, 4]: 0.9 ppm
Total active halogen DPD (as Cl2) [1, 4]: 0.9 ppm
Free active halogen DPD (as Cl2) [1, 5]: 0.0 ppm
Indicated Species DMH stabilized NaOCl (as Cl2) [1, 5]: 1.0 ppm
Total active halogen DPD (as Cl2) [1, 5]: 1.0 ppm
Free active halogen DPD (as Cl2) [1, 6]: 0.0 ppm
Indicated Species DMH stabilized NaOCl (as Cl2) [1, 6]: 0.9 ppm
Total active halogen DPD (as Cl2) [1, 6]: 0.9 ppm
Free active halogen DPD (as Cl2) [1, 7]: 0.0 ppm
Indicated Species DMH stabilized NaOCl (as Cl2) [1, 7]: 0.9 ppm
Total active halogen DPD (as Cl2) [1, 7]: 0.9 ppm

[Na+].[O-]Cl [NaOCl]
Free active halogen DPD (as Cl2) [1, 8]: 0.0 ppm
Indicated Species NaOCl (as Cl2) [1, 8]: 0.0 ppm
Total active halogen DPD (as Cl2) [1, 8]: 0.0 ppm
Indicated Species NaOCl (as Cl2) [1, 9]: 0.0 ppm
Indicated Species NaOCl (as Cl2) [1, 10]: 0.0 ppm
free chlorine after combination [1, 11]: no detectable free chlorine

O=S([O-])[O-].[Na+].[Na+] [Sulfite, sodium sulfite]
3 h Reduction (Pseudomonas aeruginosa; Table 5 Test No. 2: sulfite 8.3 ppm, peroxide 0 ppm): 0.1 lg cfu/mL
3 h Reduction (Pseudomonas aeruginosa; Table 5 Test No. 3: sulfite 0.83 ppm, peroxide 0 ppm): 0.0 lg cfu/mL
effect on bacterial populations ([2]; Example 3, sulfite alone at 32-128 ppm): no significant effect
amount alone required to achieve 1 g cfu/mL reduction of 4.2 ([2]; Example 4): > 512 ppm
effect on the microbial populations ([2]; Example 4, sulfite at 128-512 ppm): no significant effect
3 h Reduction [2, 12]: −0.40 lg cfu/mL
24 h Reduction [2, 12]: 0.11 lg cfu/mL
3 h Reduction [2, 13]: −0.50 lg cfu/mL
24 h Reduction [2, 13]: −0.45 lg cfu/mL
3 h Reduction [2, 14]: 0.32 lg cfu/mL
24 h Reduction [2, 14]: 0.11 lg cfu/mL
3 h Reduction [2, 15]: 0.08 lg cfu/mL
24 h Reduction [2, 15]: −0.45 lg cfu/mL
Sulfite (as H2O2) [3, 16]: 3.1 ppm
Sulfite (as SO3^2−) ([3]; pH 6.7, 21° C., start 40 ppm sulfite + 20.0 ppm H2O2, 15 min after mixing): 7.2 ppm
Sulfite (as H2O2) [3, 17]: 2.3 ppm
Sulfite (as SO3^2−) ([3]; pH 6.7, 21° C., start 40 ppm sulfite + 20.0 ppm H2O2, 30 min after mixing): 5.4 ppm
Sulfite (as H2O2) [3, 18]: 0.0 ppm
Sulfite (as SO3^2−) ([3]; pH 6.7, 21° C., start 40 ppm sulfite + 20.0 ppm H2O2, 60 min after mixing): 0.0 ppm
Sulfite (as H2O2) [3, 19]: 7.9 ppm
Sulfite (as SO3^2−) [3, 19]: 18.7 ppm
Sulfite (as H2O2) [3, 20]: 6.8 ppm
Sulfite (as SO3^2−) [3, 20]: 16.0 ppm
Sulfite (as H2O2) [3, 21]: 6.7 ppm
Sulfite (as SO3^2−) [3, 21]: 15.7 ppm
Sulfite (as H2O2) [3, 22]: 6.2 ppm
Sulfite (as SO3^2−) [3, 22]: 14.6 ppm
Sulfite (as H2O2) [3, 23]: 5.2 ppm
Sulfite (as SO3^2−) [3, 23]: 12.3 ppm
Sulfite (as H2O2) [3, 24]: 0.1 ppm
Sulfite (as SO3^2−) [3, 24]: 0.3 ppm

OO [hydrogen peroxide]
reduction (Pseudomonas aeruginosa; P. aeruginosa grown up in 830 ppm sulfite diluted to 8.3 ppm during application): 1.5 1 g cfu/mL
reduction (Pseudomonas aeruginosa; P. aeruginosa grown up in the absence of sulfite): 0.9 1 g cfu/mL
3 h Reduction (Pseudomonas aeruginosa; Table 5 Test No. 4: sulfite 0 ppm, peroxide 50 ppm): 0.9 lg cfu/mL
Indicated Species H2O2 [1, 4]: 2.1 ppm
Indicated Species H2O2 [1, 5]: 1.9 ppm
Indicated Species H2O2 [1, 7]: 2.3 ppm
Indicated Species H2O2 [1, 8]: 1.8 ppm
Indicated Species H2O2 [1, 9]: 1.8 ppm
Indicated Species H2O2 [1, 10]: 1.4 ppm
H2O2 residue [1, 11]: ~1.6 ppm
reduction in 3 h [2, 25]: 1.2-3.5 1 g cfu/mL
reduction in 24 h [2, 25]: 5.5 1 g cfu/mL
reduction in 3 h [2, 26]: 3.3-4.0 1 g cfu/mL
reduction in 24 h [2, 26]: 3.7-5.5 1 g cfu/mL
amount alone required to achieve 1 g cfu/mL reduction of 4.2 ([2]; Example 4): ≥ 150 ppm
3 h Reduction [2, 27]: 1.2 lg cfu/mL
24 h Reduction [2, 27]: 5.5 lg cfu/mL
3 h Reduction [2, 28]: 3.5 lg cfu/mL
24 h Reduction [2, 28]: 5.5 lg cfu/mL
3 h Reduction [2, 29]: 4.0 lg cfu/mL
24 h Reduction [2, 29]: 4.5 lg cfu/mL
3 h Reduction [2, 30]: 4.2 lg cfu/mL
24 h Reduction [2, 30]: 3.7 lg cfu/mL
3 h Reduction [2, 31]: 3.3 lg cfu/mL
24 h Reduction [2, 31]: 5.0 lg cfu/mL
H2O2 [3, 16]: 6.1 ppm
H2O2 [3, 17]: 5.1 ppm
H2O2 [3, 18]: 2.4 ppm
H2O2 [3, 19]: 16.9 ppm
H2O2 [3, 20]: 14.8 ppm
H2O2 [3, 21]: 14.7 ppm
H2O2 [3, 22]: 15.2 ppm
H2O2 [3, 23]: 13.2 ppm
H2O2 [3, 24]: 8.1 ppm
